Common to all, as to assay type: cell-based
One experiment has as its target T1, human TLR8 (Homo sapiens, UniProt Q9NR97).
T1 construct: host or cells: HEK-Blue cells
T1 sequence (Q9NR97 27-1041): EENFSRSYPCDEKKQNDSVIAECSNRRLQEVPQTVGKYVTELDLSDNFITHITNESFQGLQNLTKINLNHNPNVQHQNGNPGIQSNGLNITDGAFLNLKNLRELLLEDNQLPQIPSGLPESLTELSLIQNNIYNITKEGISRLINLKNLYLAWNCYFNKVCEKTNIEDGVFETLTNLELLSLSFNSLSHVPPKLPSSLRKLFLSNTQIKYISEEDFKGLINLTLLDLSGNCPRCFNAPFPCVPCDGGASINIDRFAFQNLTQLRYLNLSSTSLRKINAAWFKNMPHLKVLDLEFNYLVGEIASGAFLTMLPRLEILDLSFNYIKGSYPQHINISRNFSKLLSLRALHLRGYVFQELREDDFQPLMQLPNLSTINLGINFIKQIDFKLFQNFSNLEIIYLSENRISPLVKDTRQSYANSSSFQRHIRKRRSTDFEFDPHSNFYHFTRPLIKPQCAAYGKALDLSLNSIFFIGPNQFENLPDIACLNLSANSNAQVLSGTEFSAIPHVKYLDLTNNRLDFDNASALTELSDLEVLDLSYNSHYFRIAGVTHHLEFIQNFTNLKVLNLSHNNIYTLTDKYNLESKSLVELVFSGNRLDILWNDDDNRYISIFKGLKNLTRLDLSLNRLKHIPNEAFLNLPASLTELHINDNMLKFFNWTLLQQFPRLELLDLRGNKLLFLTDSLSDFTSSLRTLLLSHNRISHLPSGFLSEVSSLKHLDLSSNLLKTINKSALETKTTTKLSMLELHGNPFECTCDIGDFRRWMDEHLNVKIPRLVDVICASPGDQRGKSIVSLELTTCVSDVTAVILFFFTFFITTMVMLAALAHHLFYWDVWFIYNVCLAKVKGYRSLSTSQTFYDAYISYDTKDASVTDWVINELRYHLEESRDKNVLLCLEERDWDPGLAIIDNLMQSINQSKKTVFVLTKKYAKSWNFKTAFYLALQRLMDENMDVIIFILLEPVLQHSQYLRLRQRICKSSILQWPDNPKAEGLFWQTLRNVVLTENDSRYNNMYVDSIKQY
Kind of experiment: TLR8 inhibition reporter assay (HEK-Blue SEAP). As to conditions: HEK-Blue cells overexpressing human TLR8, stimulated with R848 15.9 μM, 22 hour incubation. The method, boiled down:
(§1)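 Test compounds, final 0.05 nM–50 μM, pre-treat HEK-Blue human TLR7, TLR8 or TLR9 reporter cells before agonist addition (TLR8 R848 15.9 μM; TLR7 gardiquimod 7.5 μM; TLR9 ODN2006 5 nM). Incubation runs 22 h, 37 °C. SEAP detection gives percent inhibition against DMSO and reference-inhibitor controls.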
A general note: In a reporter assay the amount or activity of a reporter protein is the signal.

The next experiment deals with T2, human TLR7 (Homo sapiens, UniProt Q9NYK1).
T2 construct: host or cells: HEK-Blue cells
T2 sequence (Q9NYK1 27-1049): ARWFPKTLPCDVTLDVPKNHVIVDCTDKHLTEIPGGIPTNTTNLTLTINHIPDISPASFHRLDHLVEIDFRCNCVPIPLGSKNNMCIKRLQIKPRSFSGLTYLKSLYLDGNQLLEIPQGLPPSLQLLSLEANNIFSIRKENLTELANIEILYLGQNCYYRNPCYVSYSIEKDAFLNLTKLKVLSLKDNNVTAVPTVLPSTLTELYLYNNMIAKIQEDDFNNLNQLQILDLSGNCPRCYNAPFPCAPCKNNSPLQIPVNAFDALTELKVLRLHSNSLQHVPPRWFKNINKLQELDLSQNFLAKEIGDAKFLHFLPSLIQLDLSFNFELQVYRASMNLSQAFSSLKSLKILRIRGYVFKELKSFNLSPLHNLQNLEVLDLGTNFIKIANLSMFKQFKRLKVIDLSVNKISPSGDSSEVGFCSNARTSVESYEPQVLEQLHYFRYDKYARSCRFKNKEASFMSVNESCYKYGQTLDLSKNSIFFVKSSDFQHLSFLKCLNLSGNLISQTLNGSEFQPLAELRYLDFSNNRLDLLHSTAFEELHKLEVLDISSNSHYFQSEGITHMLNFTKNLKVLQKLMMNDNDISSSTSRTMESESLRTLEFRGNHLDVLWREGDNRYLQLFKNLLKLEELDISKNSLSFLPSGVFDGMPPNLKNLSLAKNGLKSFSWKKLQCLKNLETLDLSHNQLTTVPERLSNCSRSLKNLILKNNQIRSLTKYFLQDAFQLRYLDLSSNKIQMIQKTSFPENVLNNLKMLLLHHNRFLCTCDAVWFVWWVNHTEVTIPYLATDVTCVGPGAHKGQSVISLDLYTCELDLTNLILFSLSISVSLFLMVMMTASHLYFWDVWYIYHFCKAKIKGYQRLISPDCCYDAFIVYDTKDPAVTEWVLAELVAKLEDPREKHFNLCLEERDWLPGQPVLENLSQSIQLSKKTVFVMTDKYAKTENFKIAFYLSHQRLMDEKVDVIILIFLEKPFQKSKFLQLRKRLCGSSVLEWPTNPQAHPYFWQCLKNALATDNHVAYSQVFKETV
Kind of experiment: TLR7 inhibition reporter assay (HEK-Blue SEAP). As to conditions: HEK-Blue cells overexpressing human TLR7, stimulated with gardiquimod 7.5 μM, 22 hour incubation. The method, boiled down:
as §1

A further experiment concerns the target T3, human TLR9 (Homo sapiens, UniProt Q9NR96).
T3 construct: host or cells: HEK-Blue cells
T3 sequence (Q9NR96 26-1032): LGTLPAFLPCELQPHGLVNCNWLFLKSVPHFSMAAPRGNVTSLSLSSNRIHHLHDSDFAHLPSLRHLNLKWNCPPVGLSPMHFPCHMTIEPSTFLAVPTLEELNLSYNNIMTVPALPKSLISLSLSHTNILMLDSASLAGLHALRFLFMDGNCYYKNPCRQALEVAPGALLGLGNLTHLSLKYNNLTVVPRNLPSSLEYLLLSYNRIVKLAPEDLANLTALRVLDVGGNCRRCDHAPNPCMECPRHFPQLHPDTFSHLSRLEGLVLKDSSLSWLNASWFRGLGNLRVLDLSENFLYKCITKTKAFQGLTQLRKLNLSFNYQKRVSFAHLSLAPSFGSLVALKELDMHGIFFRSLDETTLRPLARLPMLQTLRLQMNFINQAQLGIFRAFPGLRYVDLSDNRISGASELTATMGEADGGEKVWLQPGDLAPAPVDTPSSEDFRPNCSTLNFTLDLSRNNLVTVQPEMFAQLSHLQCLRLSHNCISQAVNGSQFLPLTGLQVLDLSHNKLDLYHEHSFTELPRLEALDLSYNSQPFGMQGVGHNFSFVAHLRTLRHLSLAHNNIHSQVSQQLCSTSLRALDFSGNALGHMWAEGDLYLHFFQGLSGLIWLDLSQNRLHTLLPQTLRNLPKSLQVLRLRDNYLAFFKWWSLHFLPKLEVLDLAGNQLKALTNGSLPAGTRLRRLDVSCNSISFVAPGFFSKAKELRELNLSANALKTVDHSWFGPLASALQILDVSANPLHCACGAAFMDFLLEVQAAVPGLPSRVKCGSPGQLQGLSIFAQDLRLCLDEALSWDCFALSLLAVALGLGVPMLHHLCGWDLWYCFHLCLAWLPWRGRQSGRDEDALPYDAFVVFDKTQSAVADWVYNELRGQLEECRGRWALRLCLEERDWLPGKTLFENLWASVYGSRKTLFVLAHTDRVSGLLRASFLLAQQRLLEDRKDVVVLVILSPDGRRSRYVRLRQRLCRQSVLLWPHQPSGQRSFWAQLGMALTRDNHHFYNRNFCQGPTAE
As to the kind of experiment: TLR9 inhibition reporter assay (HEK-Blue SEAP). The settings on record: HEK-Blue cells overexpressing human TLR9, stimulated with ODN2006 5 nM, 22 hour incubation. The method, boiled down:
as §1

In patent US12030878B2 (BRISTOL-MYERS SQUIBB COMPANY, priority 2017, dated 2024) one finds IC50 data, which are given here for twelve molecules.

For the molecule `Cc1cc(-c2[nH]c3ccc(OC4CCC(OC5CCNCC5)CC4)cc3c2C(C)C)ccn1` (stereo not drawn) [Example 185, 3-isopropyl-2-(2-methylpyridin-4-yl)-5-((4-(piperidin-4-yloxy)cyclohexyl)oxy)-1H-indole], the IC50 on human TLR8 amounted to 22.6 nM; against human TLR7, 50.2 nM; at human TLR9, 2990 nM.
The corresponding values for `Cc1cc(-c2[nH]c3ccc(OC4CCN(C(C)C)CC4)cc3c2C(C)C)ccn1` [Example 186, 3-isopropyl-5-((1-isopropylpiperidin-4-yl)oxy)-2-(2-methylpyridin-4-yl)-1H-indole] are 3.1 nM, 70.7 nM and 2670 nM.
Turning to `Cc1cc(-c2[nH]c3ccc(OCC4CCN(C)CC4)cc3c2C(C)C)ccn1` [Example 188, 3-isopropyl-5-((1-methylpiperidin-4-yl)methoxy)-2-(2-methylpyridin-4-yl)-1H-indole], the IC50 at human TLR8 is 2.1 nM; against human TLR7, 44.7 nM; against human TLR9, 1540 nM.
`CCc1c(-c2ccnc(C)c2)[nH]c2ccc(OC3CCN(C)CC3)cc12` [Example 189, 3-ethyl-5-((1-methylpiperidin-4-yl)oxy)-2-(2-methylpyridin-4-yl)-1H-indole]: the figures for the IC50 against human TLR8, on human TLR7 and at human TLR9 were 6.5 nM, 166 nM and 1080 nM, respectively.
The like results for `CCc1c(-c2ccnc(C)c2)[nH]c2ccc(OC3CCN(C(C)C)C3)cc12` (stereo not drawn) [Example 190, 3-ethyl-5-((1-isopropylpyrrolidin-3-yl)oxy)-2-(2-methylpyridin-4-yl)-1H-indole] were, in that order, 118 nM, 954 nM and 1220 nM.
The corresponding values for `Cc1cc(-c2[nH]c3ccc(OCC4CCN(C(C)C)CC4)cc3c2C(C)C)ccn1` [Example 191, 3-isopropyl-5-((1-isopropylpiperidin-4-yl)methoxy)-2-(2-methylpyridin-4-yl)-1H-indole] are 5.8 nM, 84.2 nM and 2810 nM.
Take `CCc1c(-c2ccnc(C)c2)[nH]c2ccc(OCCN3CCCC3)cc12` [Example 192, 3-ethyl-2-(2-methylpyridin-4-yl)-5-(2-(pyrrolidin-1-yl)ethoxy)-H-indole]: the results for the IC50 against human TLR8, against human TLR7 and on human TLR9 were 50.8 nM, 1030 nM and 774 nM, respectively.
Regarding `Cc1cc(-c2[nH]c3ccc(O[C@@H]4CCN(C)C4)cc3c2C(C)C)ccn1` [Example 193, (R)-3-isopropyl-2-(2-methylpyridin-4-yl)-5-((1-methylpyrrolidin-3-yl)oxy)-1H-indole], the IC50 against human TLR8 was determined as 6.4 nM; against human TLR7 it was 15.1 nM; against human TLR9, 884 nM.
Consider `COCCN1CCC(COc2ccc3[nH]c(-c4ccnc(C)c4)c(C(C)C)c3c2)C1` (stereo not drawn) [Example 194, 3-isopropyl-5-((1-(2-methoxyethyl)pyrrolidin-3-yl)methoxy)-2-(2-methylpyridin-4-yl)-1H-indole], for which the IC50 against human TLR8 is 13.7 nM; against human TLR7, 113 nM; on human TLR9, 1460 nM.
On to `Cc1cc(-c2[nH]c3ccc(OC4CCN(C5CCN(C(C)C)CC5)CC4)cc3c2C(C)C)ccn1` [Example 195, 3-isopropyl-5-((1′-isopropyl-[1,4′-bipiperidin]-4-yl)oxy)-2-(2-methylpyridin-4-yl)-1H-indole], for which the IC50 on human TLR8 came out at 0.6 nM; against human TLR7, 6 nM; against human TLR9, 58 nM.
The like results for `Cc1cc(-c2[nH]c3ccc(OC4CCN(C(=O)CN(C)C)CC4)cc3c2C(C)C)ccn1` [Example 196, 2-(dimethylamino)-1-(4-((3-isopropyl-2-(2-methylpyridin-4-yl)-1H-indol-5-yl)oxy)piperidin-1-yl)ethan-1-one] were, in that order, 11.8 nM, 9.9 nM and 1420 nM.
The like results for `Cc1cc(-c2[nH]c3ccc(OC4CCN(CC(=O)O)CC4)cc3c2C(C)C)cc(C)n1` [Example 197, 2-(4-((2-(2,6-dimethylpyridin-4-yl)-3-isopropyl-1H-indol-5-yl)oxy)piperidin-1-yl)acetic acid] were, in that order, 462 nM, 679 nM and 25200 nM.

A word on the IC50: it is the concentration at which inhibition is half-maximal. Read a high IC50 as weaker potency in that assay.
